What was measured:
Format in all cases: in vivo, rats
Neopterin = Neopterin decreasing property in experimental diabetes; conditions: H.G. animals, standard drug
Protocol: (§1) Before utilizing the test drug for human consumption the pre-clinical safety and efficacy profile of single plant candidate extract as well as in combined form was conducted following standard norms. The biological property of test formulation was validated in streptozotocin (STZ) induced diabetes animal model which also helped in evaluation of vascular complications caused due to diabetes. The effect of test drug was assessed on glucose levels, insulin level, glycosylated hemoglobin, and pro-inflammatory cytokines, and the most important bio-marker neopterin including various neuro-psychological assessments. The mechanism based study clearly indicated the neopterin decreasing potential of test formulation which exerted neuro-protective activity, better glycemic control, anti-atherosclerotic, anti-inflammatory, anti-oxidant effects in STZ induced diabetes among the animals. Further, its therapeutic activity has also been validated in neurogenic dementia and other cognitive deficits associated with diabetes mellitus.

F,1-6 bisphosphate = assay: Regulation of key enzymes in gluconeogenesis: F,1-6 bisphosphate; conditions: H.G. animals; standard drug
Protocol: as §1

Insulin = Insulin secretagogues property in diabetic animals; conditions: H.G. animals; standard drug
Protocol: as §1

Cholesterol = assay: Anti-hyperlipidemic activity: cholesterol; conditions: H.G. animals, standard drug
Protocol: as §1

[1] = test system: streptozotocin (STZ) induced diabetes animal model; assay: Anti-hyperglycemic activity, weekly assessment of plasma glucose; conditions: H.G. animals, standard drug
Protocol: as §1
Low dose=100 mg/kg; High dose=200 mg/kg

[2] = test system: SGOT, SGPT, ALP, ACP, LDH; assay: Hepato-protective effect (SGOT, SGPT, ALP, ACP, LDH); conditions: H.G. animals; standard drug
Protocol: as §1, with “mellitus. Hepato-Protective Effect of Test Formulation” for “mellitus.”

Triglycerides = assay: Anti-hyperlipidemic activity on triglycerides; conditions: H.G. animals, standard drug
Protocol: as §1

[3] = test system: streptozotocin (STZ) induced diabetes animal model; assay: Urine volume and glyceuira (Benedict reagent); design: key to Glyceuria: (+++) abundant; (++) moderate; (+) mild; (−) complete absence; conditions: H.G. animals; standard drug
Protocol: as §1
Urine was collected from each group separately by using animal metabolic cage, volume of urine collected was measured and glucose executed in urine was detected by Benedict reagent. In which 1 ml of urine and 3 ml of B.R. are added and boiled for 5 minute. The change in color was observed as Red (+++), green coloration (++) yellow coloration (+) and unchanged (−).

Free Fatty Acid (FFA) = assay: Reduction in free fatty acids; conditions: H.G. animals; standard drug
Protocol: as §1, with “mellitus. Reduction in Free Fatty Acids Following Test Formulation Treatment Treated with test formulation reported FFA elevation in tissues and plasma of diabetic rats” for “mellitus.”

Adipocyte = assay: Reduction in hypertrophy of adipocyte; conditions: H.G. animals; standard drug
Protocol: as §1, with “mellitus. Reduction in hypertrophy of Adipocyte on Treated with Test Formulation” for “mellitus.”

Glycogen = assay: Restoration of glycogen in liver and skeletal muscle; conditions: H.G. animals; standard drug
Protocol: (§2) Before utilizing the test drug for human consumption the pre-clinical safety and efficacy profile of single plant candidate extract as well as in combined form was conducted following standard norms. […] The effect of test drug was assessed on glucose levels, insulin level, glycosylated hemoglobin, and pro-inflammatory cytokines, and the most important bio-marker neopterin including various neuro-psychological assessments.

HDL-c, VLDL-c, LDL-c = assay: Lipoprotein profile and assessment of atherosclerosis; design: HDL-c / VLDL-c / LDL-c: unit not given here; conditions: H.G. animals; standard drug
Protocol: as §2

G-6-P = assay: Regulation of key enzymes in gluconeogenesis: G-6-P; conditions: H.G. animals; standard drug
Protocol: as §1

SMILES	Neopterin (Neopterin; 7th day)	Neopterin (Neopterin; 14th Day)	F,1-6 bisphosphate, Kidney (F,1-6 bisphosphate)	F,1-6 bisphosphate, Liver (F,1-6 bisphosphate)	Insulin (Insulin)	Cholesterol (Cholesterol; 0 days)	Cholesterol (Cholesterol; 7th day)	Cholesterol (Cholesterol; 14th Day)	Plasma glucose ([1]; 7th Day, in mg/dL)	Plasma glucose ([1]; 14th Day, in mg/dL)	ACP [2]	ALP [2]	LDH [2]	SGOT [2]	SGPT [2]	Triglycerides (Triglycerides; 0 days)	Triglycerides (Triglycerides; 7th day)	Triglycerides (Triglycerides; 14th Day)	Glyceuria [3]	Urine volume [3]	further results
CCc1ccc(CCOc2ccc(CC3SC(=O)NC3=O)cc2)nc1 (stereo not drawn) [Pioglitazone]	9.13 ± 2.10 nmol/L	8.02 ± 2.01 nmol/L	31.78 ± 3.71 μm/min/mg of protein	44.33 ± 4.29 μm/min/mg of protein	105.31 ± 9.10 pg/L	112.33 ± 7.50 mg/dL	94.23 ± 8.23 mg/dL	81.41 ± 9.94 mg/dL	153.83 ± 15.68	140.17 ± 6.25	11.95 ± 1.00 U/L	139.50 ± 3.15 U/L	160.00 ± 15.00 U/L	72.00 ± 5.71 U/L	27.00 ± 3.00 U/L	133.35 ± 09.77 mg/dL	117.50 ± 9.02 mg/dL	71.30 ± 6.26 mg/dL	++	13.23 ± 1.18 mL	Plasma glucose ([1]; 0th Day): 170.17 ± 12.55; Free Fatty Acid (FFA), Heart (Free Fatty Acid (FFA)): 379.17 ± 22.06 mg/100 g of tissue; Free Fatty Acid (FFA), Liver (Free Fatty Acid (FFA)): 522.67 ± 37.75 mg/100 g of tissue; Free Fatty Acid (FFA), Plasma (Free Fatty Acid (FFA)): 69.00 ± 5.60 mg/L; Adipocyte cell area (Adipocyte): 136.31 ± 13.53 μm; Glycogen content, Liver (Glycogen): 975.00 ± 43.14 nM/Mg of Tissue; Glycogen content, Skeletal muscle (Glycogen): 42.02 ± 7.26 nM/Mg of Tissue; Anti-atherogenic index (HDL-c, VLDL-c, LDL-c): 10.02 ± 5.23; Atherogenic Index (HDL-c, VLDL-c, LDL-c): 2.20 ± 0.35; HDL-c (HDL-c, VLDL-c, LDL-c): 31.44 ± 2.85; LDL-c (HDL-c, VLDL-c, LDL-c): 35.11 ± 7.29; VLDL-c (HDL-c, VLDL-c, LDL-c): 17.86 ± 2.05; G-6-P, Kidney (G-6-P): 45.08 ± 4.76 μm/min/mg of protein; G-6-P, Liver (G-6-P): 68.56 ± 7.51 μm/min/mg of protein
CN(C)C(=N)N=C(N)N [Metformin]	8.90 ± 1.87 nmol/L	9.11 ± 1.39 nmol/L	29.67 ± 5.60 μm/min/mg of protein	34.59 ± 4.90 μm/min/mg of protein	109.24 ± 12.13 pg/L	110.33 ± 9.55 mg/dL	100.00 ± 5.63 mg/dL	88.17 ± 4.79 mg/dL	148.67 ± 8.85	118.83 ± 8.75	12.05 ± 0.68 U/L	142.00 ± 6.00 U/L	145.11 ± 15.00 U/L	60.00 ± 5.00 U/L	24.25 ± 2.12 U/L	134.77 ± 14.06 mg/dL	123.32 ± 9.51 mg/dL	102.50 ± 11.75 mg/dL	+	8.95 ± 1.70 mL	Plasma glucose ([1]; 0th Day, in mg/dL): 169.83 ± 10.03; Free Fatty Acid (FFA), Heart (Free Fatty Acid (FFA)): 446.83 ± 39.65 mg/100 g of tissue; Free Fatty Acid (FFA), Liver (Free Fatty Acid (FFA)): 777.83 ± 53.14 mg/100 g of tissue; Free Fatty Acid (FFA), Plasma (Free Fatty Acid (FFA)): 87.67 ± 7.68 mg/L; Adipocyte cell area (Adipocyte): 146.24 ± 10.85 μm; Glycogen content, Liver (Glycogen): 1095.03 ± 63.10 nM/Mg of Tissue; Glycogen content, Skeletal muscle (Glycogen): 86.98 ± 12.80 nM/Mg of Tissue; HDL-c (HDL-c, VLDL-c, LDL-c): 27.68 ± 3.51; LDL-c (HDL-c, VLDL-c, LDL-c): 41.38 ± 4.26; VLDL-c (HDL-c, VLDL-c, LDL-c): 22.10 ± 3.15; G-6-P, Kidney (G-6-P): 41.85 ± 7.71 μm/min/mg of protein; G-6-P, Liver (G-6-P): 57.49 ± 8.17 μm/min/mg of protein

Source: patent publication US10149879B2 (priority 2014, dated 2018)
